Our source for the EC50 values is patent US12583858B2 (Genentech, Inc., priority 2015, dated 2026).

The pEC50 is the negative decadic logarithm of the EC50, by convention in mol/L.

pEC50: −log10 of the molar value. Some results are limits rather than exact numbers.

The assay deals with T1, TDO2 (Homo sapiens, UniProt P48775).
T1 construct: decreased levels of NFK in SW48 cells (high TDO expressing cells)
T1 sequence (P48775 whole entry): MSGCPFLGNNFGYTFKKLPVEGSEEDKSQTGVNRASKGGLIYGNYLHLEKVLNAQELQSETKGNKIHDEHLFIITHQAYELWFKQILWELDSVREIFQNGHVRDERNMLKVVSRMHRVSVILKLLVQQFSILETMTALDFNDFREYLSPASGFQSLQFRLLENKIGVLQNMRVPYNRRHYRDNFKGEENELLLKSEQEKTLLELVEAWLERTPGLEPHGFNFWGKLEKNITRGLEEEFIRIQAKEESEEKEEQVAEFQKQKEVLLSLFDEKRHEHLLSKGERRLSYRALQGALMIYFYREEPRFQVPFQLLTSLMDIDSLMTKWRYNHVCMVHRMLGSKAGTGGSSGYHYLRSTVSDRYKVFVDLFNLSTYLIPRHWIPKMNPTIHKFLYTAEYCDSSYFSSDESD
As to the kind of experiment: TDO2 cell assay (NFK GreenScreen, SW48 cells). It counts as cell-based. The conditions noted are these: SW48 cells (high TDO expressing), 200 uM tryptophan, 24 hours; Table 3; read-out: TDO2 Cell Fluor EC50.
Consider `Cc1cc2n(n1)CCC(C1c3ccccc3-c3cncn31)C2O` (single isomer, unassigned) [Example 166b], for which the negative-log EC50 (pEC50) was 6.57.
Turning to `Cc1nc2c(o1)CCC(C1c3ccccc3-c3cncn31)C2O` (single isomer, unassigned) [Example 168a], the pEC50 was 6.85.
`OC1c2cccnc2CCC1C1c2ccc(F)cc2-c2cncn21` (single isomer, unassigned) [Example 169a]: the pEC50 was 6.68.
Regarding `O[C@H]1c2cccnc2CC[C@@H]1[C@@H]1c2ccc(F)cc2-c2cncn21` (single isomer, unassigned) [Example 169b], the negative logarithm of the EC50 (pEC50) is 4.80.
The figure for `OC1CCOCC1C1c2cccc(F)c2-c2cncn21` (single isomer, unassigned) [Example 170a] is < 4.60.
Consider `OC1CCOCC1C1c2cccc(F)c2-c2cncn21` (single isomer, unassigned) [Example 170b], for which the negative-log EC50 (pEC50) was 5.68.
The result for `OC1CCOCC1C1c2cccc(F)c2-c2cncn21` (single isomer, unassigned) [Example 170c] reads < 4.60.
Regarding `OC1CCOCC1C1c2cccc(F)c2-c2cncn21` (single isomer, unassigned) [Example 170d], the pEC50 is 4.89.
The figure for `Cc1ccc2c(c1)-c1cncn1C2C1COCC1O` (single isomer, unassigned) [Example 171a] is 6.00.
The result for `Cc1ccc2c(c1)-c1cncn1C2C1COCC1O` (single isomer, unassigned) [Example 171b] reads < 4.60; that for `Cc1ccc2c(c1)-c1cncn1C2C1COCC1O` (single isomer, unassigned) [Example 171c], 5.24.
As to `Cc1ccc2c(c1)-c1cncn1C2C1COCC1O` (single isomer, unassigned) [Example 171d], the pEC50 is 4.75.
The figure for `NC(=O)c1cc2n(n1)CCC(C1c3ccccc3-c3cncn31)C2O` (single isomer, unassigned) [Example 172a] is < 4.60.
The figure for `NC(=O)c1cc2n(n1)CCC(C1c3ccccc3-c3cncn31)C2O` (single isomer, unassigned) [Example 172b] is 5.96; for `OC1c2cc(C(F)F)nn2CCC1C1c2ccccc2-c2cncn21` (single isomer, unassigned) [Example 173a] it is < 4.60; for `OC1c2cc(C(F)F)nn2CCC1C1c2ccccc2-c2cncn21` (single isomer, unassigned) [Example 173b] it is 6.37.
The result for `N#Cc1cc2n(n1)CCC(C1c3ccccc3-c3cncn31)C2O` (single isomer, unassigned) [Example 174a] reads < 4.60; that for `N#Cc1cc2n(n1)CCC(C1c3ccccc3-c3cncn31)C2O` (single isomer, unassigned) [Example 174b], 6.82.
Turning to `Cc1nc2c(o1)CCC(C1c3ccccc3-c3cncn31)C2O` (single isomer, unassigned) [Example 178a], the negative logarithm of the EC50 (pEC50) is 6.92.
The figure for `Cc1nc2c(o1)CCC(C1c3ccccc3-c3cncn31)C2O` (single isomer, unassigned) [Example 178b] is < 4.60; for `CS(=O)(=O)N1CCC2(CC1)CC(C1c3ccccc3-c3cncn31)C2O` (single isomer, unassigned) [Example 179c] it is < 4.60; for `CS(=O)(=O)N1CCC2(CC1)CC(C1c3ccccc3-c3cncn31)C2O` (single isomer, unassigned) [Example 179d] it is 6.27.
Take `CS(=O)(=O)N1CCC2(CC1)CC(C1c3ccccc3-c3cncn31)C2O` (single isomer, unassigned) [Example 179e]: the pEC50 was 5.17.
In the case of `CS(=O)(=O)N1CCC2(CC1)CC(C1c3ccccc3-c3cncn31)C2O` (single isomer, unassigned) [Example 179f], the pEC50 was 6.92.
The figure for `CS(=O)(=O)N1CCC2(CC1)CC(C1c3ccccc3-c3cncn31)C2O` (single isomer, unassigned) [Example 179g] is 6.10; for `CS(=O)(=O)N1CCC2(CC1)CC(C1c3ccccc3-c3cncn31)C2O` (single isomer, unassigned) [Example 179h] it is 5.07.
As to `CS(=O)(=O)N1CCC2(CCC(C3c4ccccc4-c4cncn43)C2O)CC1` (single isomer, unassigned) [Example 180a], the negative-log EC50 (pEC50) was 6.43.
As for `CS(=O)(=O)N1CCC2(CCC(C3c4ccccc4-c4cncn43)C2O)CC1` (single isomer, unassigned) [Example 180b], the pEC50 is < 4.60.
The figure for `CS(=O)(=O)N1CCC2(CCC(C3c4ccccc4-c4cncn43)C2O)CC1` (single isomer, unassigned) [Example 180c] is 7.01.
Consider `CS(=O)(=O)N1CCC2(CCC(C3c4ccccc4-c4cncn43)C2O)CC1` (single isomer, unassigned) [Example 180d], for which the negative-log EC50 (pEC50) was < 4.60.
The figure for `NS(=O)(=O)N1CCC2(CC1)CC(C1c3ccccc3-c3cncn31)C2O` (single isomer, unassigned) [Example 181a] is 6.18; for `NS(=O)(=O)N1CCC2(CC1)CC(C1c3ccccc3-c3cncn31)C2O` (single isomer, unassigned) [Example 181b] it is < 4.60; for `NS(=O)(=O)N1CCC2(CC1)CC(C1c3ccccc3-c3cncn31)C2O` (single isomer, unassigned) [Example 181c] it is < 4.60.
The figure for `NS(=O)(=O)N1CCC2(CC1)CC(C1c3ccccc3-c3cncn31)C2O` (single isomer, unassigned) [Example 181d] is 5.52.
The figure for `NS(=O)(=O)N1CCC2(CC1)CC(C1c3ccccc3-c3cncn31)C2O` (single isomer, unassigned) [Example 181e] is 4.92; for `NS(=O)(=O)N1CCC2(CC1)CC(C1c3ccccc3-c3cncn31)C2O` (single isomer, unassigned) [Example 181f] it is 6.70.
As for `NS(=O)(=O)N1CCC2(CC1)CC(C1c3ccccc3-c3cncn31)C2O` (single isomer, unassigned) [Example 181g], the pEC50 is 6.03.
The figure for `NS(=O)(=O)N1CCC2(CC1)CC(C1c3ccccc3-c3cncn31)C2O` (single isomer, unassigned) [Example 181h] is 4.96; for `NS(=O)(=O)N1CCC2(CCC(C3c4ccccc4-c4cncn43)C2O)CC1` (single isomer, unassigned) [Example 182a] it is < 4.60; for `NS(=O)(=O)N1CCC2(CCC(C3c4ccccc4-c4cncn43)C2O)CC1` (single isomer, unassigned) [Example 182b] it is 6.27.
Turning to `NS(=O)(=O)N1CCC2(CCC(C3c4ccccc4-c4cncn43)C2O)CC1` (single isomer, unassigned) [Example 182c], the pEC50 was 5.34.
The figure for `NS(=O)(=O)N1CCC2(CCC(C3c4ccccc4-c4cncn43)C2O)CC1` (single isomer, unassigned) [Example 182d] is 7.04; for `OC1c2cncn2CC[C@H]1[C@H]1c2ccccc2-c2cncn21` (stereo in doubt) [Example 07c, (7S,8R)-7-((S)-5H-imidazo[5,1-a]isoindol-5-yl)-5,6,7,8-tetrahydroimidazo[1,5-a]pyridin-8-ol] it is 6.37; for `OC1c2cncn2CC[C@@H]1[C@@H]1c2ccccc2-c2cncn21` (stereo in doubt) [Example 07d, (7R,8S)-7-((R)-5H-imidazo[5,1-a]isoindol-5-yl)-5,6,7,8-tetrahydroimidazo[1,5-a]pyridin-8-ol] it is < 4.60.
The result for `CCS(=O)(=O)N1CC[C@H]([C@H]2c3ccccc3-c3cncn32)[C@@H](O)C1` (stereo in doubt) [Example 16d, (3R,4R)-1-(ethylsulfonyl)-4-((S)-5H-imidazo[5,1-a]isoindol-5-yl)piperidin-3-ol] reads < 4.60; that for `NC(=O)c1ccc2c(c1)CC[C@H](C1c3ccccc3-c3cncn31)[C@H]2O` (stereo in doubt) [Example 60c, (5R,6R)-5-hydroxy-6-((S)-5H-imidazo[5,1-a]isoindol-5-yl)-5,6,7,8-tetrahydronaphthalene-2-carboxamide], 5.62.
Regarding `N#Cc1ccc2c(c1)[C@@H](O)[C@@H]([C@H]1c3ccccc3-c3cncn31)CC2` (stereo in doubt) [Example 113d, (7R,8S)-8-hydroxy-7-((S)-5H-imidazo[5,1-a]isoindol-5-yl)-5,6,7,8-tetrahydronaphthalene-2-carbonitrile], the pEC50 was 4.92.
Consider `N#Cc1ccc2c(c1)[C@H](O)[C@H]([C@@H]1c3ccccc3-c3cncn31)CC2` (stereo in doubt) [Example 113e, (7S,8R)-8-hydroxy-7-((R)-5H-imidazo[5,1-a]isoindol-5-yl)-5,6,7,8-tetrahydronaphthalene-2-carbonitrile], for which the pEC50 was 5.89.
`OC1c2cccn2CC[C@H]1C1c2ccccc2-c2cncn21` (stereo in doubt) [Example 136f, (7S,8S)-7-((R)-5H-imidazo[5,1-a]isoindol-5-yl)-5,6,7,8-tetrahydroindolizin-8-ol]: the negative logarithm of the EC50 (pEC50) is 6.44.
The figure for `O[C@@H]1CC[C@@H]1[C@@H]1c2ccccc2-c2cncn21` [Example 01a, (1R,2R)-2-((R)-5H-imidazo[5,1-a]isoindol-5-yl)cyclobutan-1-ol] is 4.85; for `O[C@H]1CC[C@H]1[C@H]1c2ccccc2-c2cncn21` [Example 01b, (1S,2S)-2-((S)-5H-imidazo[5,1-a]isoindol-5-yl)cyclobutan-1-ol] it is 6.82.
The figure for `O[C@H]1CC[C@@H]1[C@@H]1c2ccccc2-c2cncn21` [Example 01c, (1S,2R)-2-((R)-5H-imidazo[5,1-a]isoindol-5-yl)cyclobutan-1-ol] is < 4.60.
The result for `O[C@H]1CC[C@@H]1[C@H]1c2ccccc2-c2cncn21` [Example 01e, (1S,2R)-2-((S)-5H-imidazo[5,1-a]isoindol-5-yl)cyclobutan-1-ol] reads 5.96.
Take `O[C@@H]1CCC[C@@H]1[C@@H]1c2ccccc2-c2cncn21` [Example 02a, (1R,2R)-2-((R)-5H-imidazo[5,1-a]isoindol-5-yl)cyclopentan-1-ol]: the negative logarithm of the EC50 (pEC50) was 4.92.
